Assay results as given in ChEMBL document CHEMBL1137878, “Synthesis and evaluation of novel oxazoline MMP inhibitors” (Bioorg Med Chem Lett, 2004).

How the values were obtained:
[1] = target: T1, Matrix metalloproteinase-9 (Homo sapiens, UniProt P14780); assay: Inhibitory activity against matrix metalloprotease-9; NA denotes no activity upto solubility limit
Interstitial collagenase [2] = target: T2, Interstitial collagenase (Homo sapiens, UniProt P03956); assay: Inhibitory activity against matrix metalloprotease-1; NA denotes no activity upto solubility limit
T2 sequence (P03956 whole entry): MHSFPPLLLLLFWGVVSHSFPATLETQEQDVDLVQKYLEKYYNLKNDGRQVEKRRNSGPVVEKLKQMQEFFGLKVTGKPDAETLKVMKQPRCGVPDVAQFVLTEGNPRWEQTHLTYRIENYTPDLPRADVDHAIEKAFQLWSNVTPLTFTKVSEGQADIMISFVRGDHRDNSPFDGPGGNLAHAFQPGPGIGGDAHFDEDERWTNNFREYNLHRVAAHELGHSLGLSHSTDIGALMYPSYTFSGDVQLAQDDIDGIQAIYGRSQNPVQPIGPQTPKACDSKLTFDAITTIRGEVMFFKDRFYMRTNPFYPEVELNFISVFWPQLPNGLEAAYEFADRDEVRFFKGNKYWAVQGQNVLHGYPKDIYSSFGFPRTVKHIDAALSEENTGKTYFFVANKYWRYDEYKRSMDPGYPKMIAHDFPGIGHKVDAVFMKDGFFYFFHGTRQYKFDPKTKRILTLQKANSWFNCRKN

[3] = target: T3, 72 kDa type IV collagenase (Homo sapiens, UniProt P08253); assay: Inhibitory activity against matrix metalloprotease-2; NA denotes no activity upto solubility limit
T3 sequence (P08253 whole entry): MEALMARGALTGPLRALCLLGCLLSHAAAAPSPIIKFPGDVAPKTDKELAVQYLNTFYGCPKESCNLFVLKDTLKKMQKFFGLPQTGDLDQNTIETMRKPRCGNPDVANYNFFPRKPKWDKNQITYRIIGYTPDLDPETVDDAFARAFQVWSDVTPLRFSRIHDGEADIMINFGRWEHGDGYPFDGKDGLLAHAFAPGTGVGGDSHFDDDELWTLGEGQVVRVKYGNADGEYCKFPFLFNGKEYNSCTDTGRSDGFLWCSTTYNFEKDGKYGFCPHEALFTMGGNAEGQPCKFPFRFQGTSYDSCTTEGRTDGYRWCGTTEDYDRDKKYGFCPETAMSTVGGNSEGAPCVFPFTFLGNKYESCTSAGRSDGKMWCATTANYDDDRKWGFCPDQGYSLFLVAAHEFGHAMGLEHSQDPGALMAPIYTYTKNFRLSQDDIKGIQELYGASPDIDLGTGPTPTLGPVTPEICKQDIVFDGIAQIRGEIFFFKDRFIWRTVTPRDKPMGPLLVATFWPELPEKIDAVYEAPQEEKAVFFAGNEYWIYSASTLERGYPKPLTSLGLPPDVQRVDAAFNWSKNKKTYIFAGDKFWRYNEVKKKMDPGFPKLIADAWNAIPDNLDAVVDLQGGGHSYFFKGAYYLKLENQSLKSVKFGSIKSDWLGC

[4] = target: T4, Macrophage metalloelastase (Homo sapiens, UniProt P39900); assay: Inhibitory activity against matrix metalloprotease-12
T4 sequence (P39900 whole entry): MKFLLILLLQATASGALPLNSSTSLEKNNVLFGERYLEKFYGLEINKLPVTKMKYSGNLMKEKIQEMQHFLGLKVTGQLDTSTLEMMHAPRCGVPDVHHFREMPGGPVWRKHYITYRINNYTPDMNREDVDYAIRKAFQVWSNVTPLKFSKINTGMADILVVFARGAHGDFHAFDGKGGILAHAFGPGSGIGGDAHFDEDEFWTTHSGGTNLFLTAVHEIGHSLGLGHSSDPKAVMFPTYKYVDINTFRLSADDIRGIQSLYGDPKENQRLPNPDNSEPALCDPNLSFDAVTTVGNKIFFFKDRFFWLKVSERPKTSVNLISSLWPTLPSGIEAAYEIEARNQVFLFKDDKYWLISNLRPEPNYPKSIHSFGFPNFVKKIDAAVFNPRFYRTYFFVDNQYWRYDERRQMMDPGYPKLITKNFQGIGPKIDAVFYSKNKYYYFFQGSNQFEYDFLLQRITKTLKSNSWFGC

[5] = target: T3, 72 kDa type IV collagenase; assay: Inhibitory activity against matrix metalloprotease-2
[6] = target: T1, Matrix metalloproteinase-9; assay: Inhibitory activity against matrix metalloprotease-9
[7] = target: T4, Macrophage metalloelastase; assay: Inhibitory activity against matrix metalloprotease-12; NA denotes no activity upto solubility limit
Interstitial collagenase [8] = target: T2, Interstitial collagenase; assay: Inhibitory activity against matrix metalloprotease-1
[9] = target: T1, Matrix metalloproteinase-9; assay: Inhibitory activity against matrix metalloprotease-9; F denotes no activity was observed upto the concentration that fluorescence could be compensated for
Interstitial collagenase [10] = target: T2, Interstitial collagenase; assay: Inhibitory activity against matrix metalloprotease-1; F denotes no activity was observed upto the concentration that fluorescence could be compensated for

T1 sequence (P14780 whole entry): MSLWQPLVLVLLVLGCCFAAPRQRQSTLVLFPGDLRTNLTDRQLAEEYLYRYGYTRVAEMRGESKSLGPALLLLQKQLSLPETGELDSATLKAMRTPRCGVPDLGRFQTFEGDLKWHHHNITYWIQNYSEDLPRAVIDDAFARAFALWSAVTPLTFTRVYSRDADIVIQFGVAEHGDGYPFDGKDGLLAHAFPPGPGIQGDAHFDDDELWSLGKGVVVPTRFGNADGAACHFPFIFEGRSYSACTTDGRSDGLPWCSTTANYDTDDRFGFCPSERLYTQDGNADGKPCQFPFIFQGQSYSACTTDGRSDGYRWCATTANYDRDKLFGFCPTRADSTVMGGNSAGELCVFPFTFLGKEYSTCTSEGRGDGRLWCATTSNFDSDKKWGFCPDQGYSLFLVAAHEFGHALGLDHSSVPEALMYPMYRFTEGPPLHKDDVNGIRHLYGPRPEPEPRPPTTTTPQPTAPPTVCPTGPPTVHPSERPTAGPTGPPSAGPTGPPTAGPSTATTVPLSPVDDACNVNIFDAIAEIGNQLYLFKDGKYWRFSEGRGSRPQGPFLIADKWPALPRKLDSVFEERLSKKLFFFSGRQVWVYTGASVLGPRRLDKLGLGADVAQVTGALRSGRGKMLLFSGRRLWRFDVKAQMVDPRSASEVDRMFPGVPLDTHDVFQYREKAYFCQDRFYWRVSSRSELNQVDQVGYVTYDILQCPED

Row | Ki (Interstitial collagenase [2]) | Ki [3] | Ki [6] [µM] | Ki [7] | Ki (Interstitial collagenase [8]) [µM] | SMILES | other results
1 | No Activity | – | > 4000 | – | – | C=C[C@@H]1OC(c2ccccc2)=N[C@H]1CO | Ki [4]: > 2000 µM; Ki [5]: > 2000 µM
2 | No Activity | – | 9 | – | – | C=C[C@@H]1OC(c2ccc(Br)cc2)=N[C@H]1CO | Ki [4]: > 300 µM; Ki [5]: > 600 µM
3 | – | – | > 100 | – | > 100 | C=C[C@@H]1OC(c2ccc(C)cc2)=N[C@H]1S | Ki [4]: > 300 µM; Ki [5]: 88 µM
4 | No Activity | No Activity | – | No Activity | – | C=C[C@@H]1OC(c2ccc(F)cc2)=N[C@H]1CO | Ki [1]: No Activity
5 | – | No Activity | 22 | No Activity | > 300 | C=C[C@@H]1OC(/C=C/c2ccc(Br)cc2)=N[C@H]1CO | –
6 | – | – | 94 | – | – | C=C[C@@H]1OC(c2ccc(Br)cc2)=N[C@H]1Sc1ccccc1 | –
7 | – | No Activity | – | No Activity | 64 | C=C[C@@H]1OC(c2ccc(C)cc2)=N[C@H]1Sc1ccccc1 | –
8 | No Activity | No Activity | 68 | No Activity | – | C=C[C@@H]1OC(c2ccc(C)cc2)=N[C@H]1CO | –
9 | No Activity | No Activity | – | No Activity | – | C=C[C@@H]1OC(c2ccc(OC)cc2)=N[C@H]1CO | Ki [1]: No Activity
10 | – | No Activity | – | – | > 100 | C=C[C@@H]1OC(c2ccc(Cl)cc2)=N[C@H]1SC(C)=O | –
11 | – | No Activity | > 100 | No Activity | > 100 | C=C[C@@H]1OC(c2ccc(Cl)cc2)=N[C@H]1S | –
12 | – | – | 33 | No Activity | > 300 | C=C[C@@H]1OC(c2ccc(Cl)cc2)=N[C@H]1CO | –
13 | No Activity | No Activity | > 100 | No Activity | – | C=C[C@@H]1OC(c2ccc(C)cc2)=N[C@H]1SC(C)=O | –
14 | – | No Activity | 88 | No Activity | > 200 | C=C[C@@H]1OC(c2ccc(Br)cc2)=N[C@H]1SC(C)=O | –
15 | – | – | > 100 | – | > 200 | C=C[C@@H]1OC(c2ccc(Br)cc2)=N[C@H]1S | –
16 | No Activity | – | 24 | – | – | C=C[C@@H]1OC(c2ccc(-c3ccccc3)cc2)=N[C@H]1CO | –

The next lines start with the compound.

Row | SMILES | Ki (Interstitial collagenase [2]) | Ki [3] | Ki [6] [µM] | Ki [7] | Ki (Interstitial collagenase [8]) [µM] | other results
17 | C=C[C@@H]1OC(CCc2ccccc2)=N[C@H]1CO | No Activity | No Activity | – | – | – | Ki [1]: No Activity
18 | C=CC1=N[C@@H](CO)[C@H](C=C)O1 | No Activity | No Activity | – | No Activity | – | Ki [1]: No Activity
19 | C=C[C@@H]1OC(C#Cc2ccccc2)=N[C@H]1CO | – | No Activity | 65 | No Activity | 46 | –
20 | C=C[C@@H]1OC(/C=C/c2ccccc2)=N[C@H]1SC(C)=O | No Activity | – | > 100 | – | – | Ki [4]: > 300 µM
21 | C=C[C@@H]1OC(/C=C/c2ccccc2)=N[C@H]1CO | – | – | 40 | – | – | –
22 | C=C[C@@H]1OC(/C=C\C=C\c2ccccc2)=N[C@H]1CO | – | – | 8 | – | 32 | Ki [4]: 49 µM; Ki [5]: 153 µM
23 | C=C[C@@H]1OC(CCCCC)=N[C@H]1CO | – | – | > 2000 | – | – | –
24 | C=C[C@@H]1OC(Cc2ccccc2)=N[C@H]1CO | – | No Activity | 6 | No Activity | > 500 | –
25 | C=C[C@@H]1OC(c2ccc(Cl)cc2)=N[C@H]1Sc1ccccc1 | No Activity | – | > 200 | No Activity | – | –
26 | C=C[C@@H]1OC(/C=C/c2ccc(-c3ccccc3)cc2)=N[C@H]1CO | – | No Activity | – | No Activity | – | Ki [1]: No Activity
27 | C=C[C@@H]1OC(c2ccc([N+](=O)[O-])cc2)=N[C@H]1CO | – | – | – | – | – | Ki [4]: > 100 µM; Ki [9]: Fluorescence interfered with assay; Ki (Interstitial collagenase [10]): Fluorescence interfered with assay
28 | C=C[C@@H]1OC(c2ccc(-c3ccccc3)cc2)=N[C@H]1Sc1ccccc1 | No Activity | No Activity | > 100 | – | – | –
29 | C=C[C@@H]1OC(/C=C/c2ccccc2)=N[C@H]1S | – | No Activity | 94 | No Activity | 92 | –
30 | C=C[C@@H]1OC(/C=C/c2ccccc2)=N[C@H]1Sc1ccccc1 | – | No Activity | > 100 | No Activity | > 100 | –
31 | C=C[C@@H]1OC(C2CCCCC2)=N[C@H]1CO | No Activity | No Activity | – | No Activity | – | Ki [1]: No Activity
32 | C=C[C@@H]1OC(CCCCCCC)=N[C@H]1CO | – | – | > 2000 | – | – | –
33 | C=C[C@@H]1OC(c2ccc(Oc3ccccc3)cc2)=N[C@H]1CO | – | – | 32 | – | – | –
34 | C=C[C@@H]1OC(c2ccc(-c3ccccc3)cc2)=N[C@H]1SC(C)=O | – | No Activity | 81 | No Activity | > 400 | –
